Assay: refractive index (Na D-line) (dimensionless); xn = mol fraction of the nth substance listed
Details: 102.2 kPa, Liquid, Standard Abbe refractometry

C[Si](C)(O[Si](C)(C)c1ccccc1)c1ccccc1 [1,3-diphenyltetramethyldisiloxane] + C=C[Si](C)(C)O[Si](C)(C)C=C
refractive index
Details | 308.15 K | 313.15 K | 318.15 K | 323.15 K | 328.15 K
x1 = 0.0502 | 1.41155 | 1.40892 | 1.40628 | 1.40366 | 1.40099
x1 = 0.1 | 1.41834 | 1.41574 | 1.41315 | 1.41057 | 1.40797
x1 = 0.1487 | 1.42478 | 1.42224 | 1.41967 | 1.41713 | 1.41456
x1 = 0.2002 | 1.43134 | 1.42886 | 1.42631 | 1.42381 | 1.42128
x1 = 0.2498 | 1.43748 | 1.43501 | 1.43251 | 1.43004 | 1.4275
x1 = 0.3 | 1.44347 | 1.44103 | 1.43853 | 1.43607 | 1.43356
x1 = 0.3503 | 1.4493 | 1.44687 | 1.4444 | 1.44199 | 1.43951
x1 = 0.3994 | 1.45477 | 1.45239 | 1.44994 | 1.44752 | 1.44508
x1 = 0.4502 | 1.46032 | 1.45792 | 1.45549 | 1.45314 | 1.45071
x1 = 0.5001 | 1.46558 | 1.46321 | 1.46081 | 1.45844 | 1.45605
x1 = 0.5498 | 1.47066 | 1.46834 | 1.46594 | 1.4636 | 1.4612
x1 = 0.6002 | 1.47565 | 1.47332 | 1.47093 | 1.46859 | 1.46619
x1 = 0.6502 | 1.48048 | 1.47816 | 1.47577 | 1.47346 | 1.47107
x1 = 0.7004 | 1.48515 | 1.48285 | 1.48049 | 1.47821 | 1.47583
x1 = 0.7504 | 1.48971 | 1.48739 | 1.48506 | 1.48275 | 1.48038
x1 = 0.8003 | 1.4941 | 1.49177 | 1.48948 | 1.48715 | 1.48483
x1 = 0.8498 | 1.49836 | 1.49606 | 1.49375 | 1.49142 | 1.48912
x1 = 0.8986 | 1.50242 | 1.50013 | 1.49781 | 1.49552 | 1.4932
x1 = 0.9502 | 1.50659 | 1.50428 | 1.50198 | 1.49974 | 1.49743
x1 = 1 | 1.51052 | 1.5082 | 1.50593 | 1.50366 | 1.50133

— the NIST ThermoML archive (doi:10.1021/acs.jced.5b00820)
